The source of these data is patent US12077503B2, “Substituted cyclic amides and their use as herbicides” (FMC CORPORATION, priority 2015, dated 2024).

Where two headings read alike, the source gives them in different places.

Data set [1] deals with ragweed (common ragweed, Ambrosia elatior). The experiment in a line: Test A preemergence. Format: in vivo. As to conditions: Ambrosia artemisiifolia, pre-emergence, 240 h; for pest or weed control at 500 g/ha: 500 g ai/ha; for pest or weed control at 125 g/ha: 125 g ai/ha. The essentials:
(§1)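 Each rating is a visual injury score from 0 to 100 given about 10 d after treatment, judged against untreated controls kept alongside in the greenhouse. In loam soil–sand blend, seeds got a preemergence directed soil spray, while postemergence plants were 2 to 10 cm tall at spraying.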

The subject of data set [2] is giant foxtail (Setaria faberii). The experiment in a line: Test A preemergence. Format: in vivo. As to conditions: Setaria faberi, pre-emergence, 240 h; for pest or weed control at 125 g/ha: 125 g ai/ha; for pest or weed control at 500 g/ha: 500 g ai/ha. The essentials:
as §1

Data set [3] relates to barnyardgrass (Echinochloa crus-galli). Put plainly: Test A preemergence. Format: in vivo. As to conditions: Echinochloa crus-galli, pre-emergence, 240 h; for pest or weed control at 125 g/ha: 125 g ai/ha; for pest or weed control at 500 g/ha: 500 g ai/ha. The essentials: as §1
For data set [4], the system named is ryegrass, Italian (Italian ryegrass, Lolium multiflorum). Put plainly: Test A preemergence. Format: in vivo. As to conditions: Lolium multiflorum, pre-emergence, 240 h; for pest or weed control at 500 g/ha: 500 g ai/ha; for pest or weed control at 125 g/ha: 125 g ai/ha. The essentials:
as §1

The subject of another data set is Kochia (Kochia scoparia). The experiment in a line: Test A preemergence. Format: in vivo. As to conditions: Bassia scoparia, pre-emergence, 240 h; for pest or weed control at 125 g/ha: 125 g ai/ha; for pest or weed control at 500 g/ha: 500 g ai/ha. The essentials:
as §1

Where [5] appears, read: preemergence, visual injury rating about 10 d after treatment, 0 to 100 scale (0 no effect, 100 complete control), read-out: Ragweed plant response rating.
[6] abbreviates: preemergence, 0 to 100 scale where 0 is no effect and 100 is complete control, read-out: Foxtail, Giant plant response rating.
[7] abbreviates: preemergence, visual injury rating about 10 d after treatment, 0 to 100 scale (0 no effect, 100 complete control), read-out: Foxtail, Giant plant response rating.
Where [8] appears, read: preemergence, 0 to 100 scale where 0 is no effect and 100 is complete control, read-out: Barnyardgrass plant response rating.
Where [9] appears, read: preemergence, visual injury rating about 10 d after treatment, 0 to 100 scale (0 no effect, 100 complete control), read-out: Barnyardgrass plant response rating.
[10] abbreviates: preemergence, visual injury rating about 10 d after treatment, 0 to 100 scale (0 no effect, 100 complete control), read-out: Ryegrass, Italian plant response rating.
[11] abbreviates: preemergence, 0 to 100 scale where 0 is no effect and 100 is complete control, read-out: Kochia plant response rating.
[12] abbreviates: preemergence, visual injury rating about 10 d after treatment, 0 to 100 scale (0 no effect, 100 complete control), read-out: Kochia plant response rating.
The mark [13] stands for this setting: preemergence, 0 to 100 scale where 0 is no effect and 100 is complete control, read-out: Ragweed plant response rating.
The mark [14] stands for this setting: Preemergence, visual injury vs untreated controls after approximately 10 d, read-out: Ragweed plant response rating (0 to 100 scale where 0 is no effect and 100 is complete control).
The mark [15] stands for this setting: Preemergence, visual injury vs untreated controls after approximately 10 d, read-out: Foxtail, Giant plant response rating (0 to 100 scale where 0 is no effect and 100 is complete control).
[16] abbreviates: Preemergence, visual injury vs untreated controls after approximately 10 d, read-out: Barnyardgrass plant response rating (0 to 100 scale where 0 is no effect and 100 is complete control).
The mark [17] stands for this setting: preemergence, 0 to 100 scale where 0 is no effect and 100 is complete control, read-out: Ryegrass, Italian plant response rating.
The mark [18] stands for this setting: Preemergence, visual injury vs untreated controls after approximately 10 d, read-out: Ryegrass, Italian plant response rating (0 to 100 scale where 0 is no effect and 100 is complete control).
Setting [19] is: Preemergence, visual injury vs untreated controls after approximately 10 d, read-out: Kochia plant response rating (0 to 100 scale where 0 is no effect and 100 is complete control).

As a reminder, the melting point is the temperature, or range, at which the solid turns liquid. In the case of `C=CCOc1cccc(C2CN(C)C(=O)C2C(=O)Nc2cccc(F)c2F)c1` (stereo not drawn) [Compound 933], the melting point fell in the range of 94 to 97 °C. Further, the pest or weed control at 500 g/ha in data set [1] (setting [5]) was found to be 90%. For the same compound, the pest or weed control at 125 g/ha in data set [2] (setting [6]) was determined as 90%. Besides, the pest or weed control at 500 g/ha in data set [2] (setting [7]) came out at 100%. The pest or weed control at 125 g/ha in data set [3] (setting [8]) was 90%. Further, in data set [3] (setting [9]), the pest or weed control at 500 g/ha stood at 100%. The pest or weed control at 500 g/ha in data set [4] (setting [10]) was determined as 70%. Also, the pest or weed control at 125 g/ha in the data set on Kochia (Kochia scoparia) (setting [11]) was 50%. Moreover, the pest or weed control at 500 g/ha in the data set with Kochia (Kochia scoparia) (setting [12]) amounted to 90%.

`CN1CC(c2cccc(C=O)c2)C(C(=O)Nc2ccccc2F)C1=O` (stereo not drawn) [Compound 844] gave a melting point of 133 to 136 °C. For the same compound, the pest or weed control at 125 g/ha in data set [1] (setting [13]) is 0%. Further, the pest or weed control at 500 g/ha in data set [1] (setting [14]) was 0%. Moreover, the pest or weed control at 125 g/ha in data set [2] (setting [6]) stood at 0%. Besides, the pest or weed control at 500 g/ha in data set [2] (setting [15]) turned out to be 30%. Moreover, in data set [3] (setting [8]), the pest or weed control at 125 g/ha is 0%. For the same compound, in data set [3] (setting [16]), the pest or weed control at 500 g/ha was found to be 20%. The pest or weed control at 125 g/ha in data set [4] (setting [17]) was 0%. Further, the pest or weed control at 500 g/ha in data set [4] (setting [18]) was determined as 0%. For the same compound, the pest or weed control at 125 g/ha with Kochia (Kochia scoparia) (setting [11]) came to 0%. Besides, in the data set with Kochia (Kochia scoparia) (setting [19]), the pest or weed control at 500 g/ha worked out at 0%.

For the compound `O=C1NCC(c2ccccc2OC(F)(F)C(F)F)C1C(=O)Nc1cccc(F)c1F` (stereo not drawn) [Compound 1054], the melting point was in the range of 192 to 196 °C. Also, the pest or weed control at 125 g/ha in data set [1] (Preemergence, visual injury rating after approximately 10 d, read-out: Ragweed plant response rating (0 to 100 scale, 0 is no effect, 100 is complete control)) amounted to 0%. Moreover, the pest or weed control at 500 g/ha in data set [1] (setting [5]) turned out to be 0%. For the same compound, the pest or weed control at 125 g/ha in data set [2] (Preemergence, visual injury rating after approximately 10 d, read-out: Foxtail, Giant plant response rating (0 to 100 scale, 0 is no effect, 100 is complete control)) came to 0%. The pest or weed control at 500 g/ha in data set [2] (setting [7]) amounted to 0%. Moreover, the pest or weed control at 125 g/ha in data set [3] (Preemergence, visual injury rating after approximately 10 d, read-out: Barnyardgrass plant response rating (0 to 100 scale, 0 is no effect, 100 is complete control)) is 0%. For the same compound, the pest or weed control at 500 g/ha in data set [3] (setting [9]) was 0%. Besides, in data set [4] (Preemergence, visual injury rating after approximately 10 d, read-out: Ryegrass, Italian plant response rating (0 to 100 scale, 0 is no effect, 100 is complete control)), the pest or weed control at 125 g/ha was 0%. The pest or weed control at 500 g/ha in data set [4] (setting [10]) amounted to 0%. Also, in the data set on Kochia (Kochia scoparia) (Preemergence, visual injury rating after approximately 10 d, read-out: Kochia plant response rating (0 to 100 scale, 0 is no effect, 100 is complete control)), the pest or weed control at 125 g/ha amounted to 0%. For the same compound, the pest or weed control at 500 g/ha in the data set on Kochia (Kochia scoparia) (setting [12]) was found to be 0%.

Regarding `CN1C[C@H](c2ccc(C(F)(F)F)cc2)[C@@H](C(=O)Nc2cccc(F)c2Br)C1=O` [Compound 937], the melting point was 160 to 163 °C. Besides, the pest or weed control at 500 g/ha in data set [1] (setting [5]) was determined as 80%. For the same compound, in data set [2] (setting [6]), the pest or weed control at 125 g/ha was 90%. For the same compound, the pest or weed control at 500 g/ha in data set [2] (setting [7]) came out at 90%. Besides, the pest or weed control at 125 g/ha in data set [3] (setting [8]) stood at 90%. Also, the pest or weed control at 500 g/ha in data set [3] (setting [9]) was determined as 90%. The pest or weed control at 500 g/ha in data set [4] (setting [10]) was found to be 50%. The pest or weed control at 125 g/ha in the data set with Kochia (Kochia scoparia) (setting [11]) came to 80%. The pest or weed control at 500 g/ha in the data set with Kochia (Kochia scoparia) (setting [12]) was found to be 80%.

On to `O=C1NC[C@H](c2cccc(I)c2)[C@H]1C(=O)Nc1ccccc1F` [Compound 1160], for which the melting point lay within 161 to 164 °C. In addition, in data set [1] (preemergence, 0 to 100 scale where 0 is no effect and 100 is complete control, approx. 10 d, read-out: Ragweed plant response rating), the pest or weed control at 125 g/ha worked out at 0%. The pest or weed control at 500 g/ha in data set [1] (setting [13]) is 0%. Moreover, in data set [2] (preemergence, 0 to 100 scale where 0 is no effect and 100 is complete control, approx. 10 d, read-out: Foxtail, Giant plant response rating), the pest or weed control at 125 g/ha is 90%. The pest or weed control at 500 g/ha in data set [2] (setting [6]) is 90%. For the same compound, in data set [3] (preemergence, 0 to 100 scale where 0 is no effect and 100 is complete control, approx. 10 d, read-out: Barnyardgrass plant response rating), the pest or weed control at 125 g/ha was 90%. The pest or weed control at 500 g/ha in data set [3] (setting [8]) is 90%. For the same compound, the pest or weed control at 125 g/ha in data set [4] (preemergence, 0 to 100 scale where 0 is no effect and 100 is complete control, approx. 10 d, read-out: Ryegrass, Italian plant response rating) was found to be 0%. Besides, in data set [4] (setting [17]), the pest or weed control at 500 g/ha stood at 0%. In the data set on Kochia (Kochia scoparia) (preemergence, 0 to 100 scale where 0 is no effect and 100 is complete control, approx. 10 d, read-out: Kochia plant response rating), the pest or weed control at 125 g/ha came to 0%. For the same compound, in the data set with Kochia (Kochia scoparia) (setting [11]), the pest or weed control at 500 g/ha stood at 50%.

In the case of `CN1C[C@H](c2cccc(F)c2)[C@@H](C(=O)Nc2ccccc2F)C1=O` [Compound 822], the pest or weed control at 125 g/ha in data set [1] (setting [13]) was determined as 0%; in data set [2] (setting [6]) it was 90%; in data set [3] (setting [8]) it was 90%; in data set [4] (setting [17]) it was 20%; in the data set with Kochia (Kochia scoparia) (setting [11]), 70%. The pest or weed control at 500 g/ha worked out at 30% in data set [1] (setting [14]); 100% in data set [2] (setting [15]); 100% in data set [3] (setting [16]); 40% in data set [4] (setting [18]); 80% in the data set on Kochia (Kochia scoparia) (setting [19]).

With `COc1c(F)ccc([C@H]2CN(C)C(=O)[C@@H]2C(=O)Nc2ccc(F)cc2F)c1Cl` [Compound 894], the pest or weed control at 125 g/ha in data set [1] (setting [13]) was found to be 0%; in data set [2] (setting [6]), 90%; in data set [3] (setting [8]), 90%; in data set [4] (setting [17]), 50%; with Kochia (Kochia scoparia) (setting [11]), 60%. Also, the pest or weed control at 500 g/ha came out at 40% in data set [1] (setting [14]); 100% in data set [2] (setting [15]); 100% in data set [3] (setting [16]); 60% in data set [4] (setting [18]); 90% in the data set with Kochia (Kochia scoparia) (setting [19]).

In the case of `Cc1cc(C)cc([C@H]2CNC(=O)[C@@H]2C(=O)Nc2ccccc2C(F)(F)F)c1` [Compound 909], the pest or weed control at 125 g/ha in data set [1] (setting [13]) stood at 0%; in data set [2] (setting [6]), 90%; in data set [3] (setting [8]) it was 70%; in data set [4] (setting [17]), 0%; in the data set with Kochia (Kochia scoparia) (setting [11]) it was 0%. Also, the pest or weed control at 500 g/ha turned out to be 20% in data set [1] (setting [14]); 90% in data set [2] (setting [15]); 80% in data set [3] (setting [16]); 30% in data set [4] (setting [18]); 50% in the data set with Kochia (Kochia scoparia) (setting [19]).
